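All cell lines were grown in 96-well plates and treated with compound for 48 hours. The concentration for 50% growth inhibition is given as GI50. TGI denotes the concentration required for complete inhibition of growth.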

TGI and GI50 data for 8 compounds are collected here from PubChem BioAssay (NCI).

Among the test systems are CAKI-1 renal; HS 578T breast; IGROV1 ovarian; NCI-H226 lung; NCI-H23 lung; NCI/ADR-RES ovarian; OVCAR-8 ovarian; SK-MEL-5 melanoma; SK-OV-3 ovarian; SR leukemia.
Common to all, as to experiment: NCI tumour cell line growth inhibition, 48 h

With `CC1=NC(C)(COC(=O)C2(C)NC(C)(CO)CO2)COC1=O` (centres undefined), the TGI with CAKI-1 renal, in the experiment with HS 578T breast, in the experiment with IGROV1 ovarian, in the experiment on NCI-H226 lung, in the experiment on NCI-H23 lung and in the experiment on NCI/ADR-RES ovarian was over 100 µM throughout. The TGI with OVCAR-8 ovarian, with SK-MEL-5 melanoma, with SK-OV-3 ovarian and in the experiment with SR leukemia was over 100 µM each time.

Regarding `NC(N)=N/N=C(\N=Nc1ccccc1)c1ccc(Cl)cc1`, the GI50 in the experiment with CAKI-1 renal is 1.42 µM; in the experiment on HS 578T breast, 4.79 µM; in the experiment with IGROV1 ovarian, 7.32 µM; with NCI-H226 lung, 3.66 µM; in the experiment on NCI-H23 lung, 14.4 µM; in the experiment on NCI/ADR-RES ovarian it was 2.76 µM. The GI50 is 2.81 µM with OVCAR-8 ovarian, 3.73 µM in the experiment with SK-MEL-5 melanoma, 3.44 µM in the experiment with SK-OV-3 ovarian and 1.93 µM with SR leukemia. Besides, the TGI with CAKI-1 renal is 3.29 µM; in the experiment with HS 578T breast, 46.6 µM; with IGROV1 ovarian, 23 µM; in the experiment with NCI-H226 lung, 18.8 µM; in the experiment on NCI-H23 lung, 30 µM; in the experiment with NCI/ADR-RES ovarian it was 10.4 µM. In addition, the TGI in the experiment on OVCAR-8 ovarian was found to be 9.58 µM; in the experiment with SK-MEL-5 melanoma, 14.8 µM; in the experiment with SK-OV-3 ovarian, 9.63 µM; in the experiment on SR leukemia, 4.72 µM.

`CC1(C)N=C(N)N=C(N)N1c1cccc(OCCOc2cccc([N+](=O)[O-])c2)c1`: the GI50 is over 100 µM in the experiment with CAKI-1 renal; 33.5 µM in the experiment with HS 578T breast; 0.565 µM in the experiment on IGROV1 ovarian; 48.6 µM in the experiment on NCI-H226 lung; 1.73 µM in the experiment on NCI-H23 lung; over 100 µM in the experiment with NCI/ADR-RES ovarian. The GI50 with OVCAR-8 ovarian was 38.6 µM; with SK-MEL-5 melanoma it was 4.5 µM; with SK-OV-3 ovarian, over 56.4 µM; in the experiment on SR leukemia, 0.543 µM. The TGI in the experiment on CAKI-1 renal, with HS 578T breast, in the experiment on IGROV1 ovarian, in the experiment with NCI-H226 lung, with NCI-H23 lung and with NCI/ADR-RES ovarian was over 100 µM throughout. Also, the TGI is over 100 µM in the experiment with OVCAR-8 ovarian, 33.5 µM with SK-MEL-5 melanoma, over 100 µM in the experiment on SK-OV-3 ovarian and over 100 µM in the experiment on SR leukemia.

As to `O=C(NNc1cnccn1)c1nc2cc(F)ccc2n2cccc12`, the GI50 is 0.422 µM in the experiment with CAKI-1 renal; 2.83 µM in the experiment on HS 578T breast; 0.503 µM with IGROV1 ovarian; 1.57 µM in the experiment on NCI-H226 lung; 0.765 µM with NCI-H23 lung; 0.461 µM in the experiment with NCI/ADR-RES ovarian. Also, the GI50 is 0.429 µM in the experiment with OVCAR-8 ovarian, 1.07 µM in the experiment on SK-MEL-5 melanoma, 0.522 µM in the experiment with SK-OV-3 ovarian and 0.247 µM in the experiment with SR leukemia. The TGI in the experiment on CAKI-1 renal was over 100 µM; in the experiment with HS 578T breast it was over 100 µM; in the experiment on IGROV1 ovarian, over 100 µM; in the experiment on NCI-H226 lung, over 100 µM; with NCI-H23 lung it was over 100 µM; in the experiment with NCI/ADR-RES ovarian it was over 44.8 µM. Moreover, the TGI with OVCAR-8 ovarian was over 100 µM; in the experiment on SK-MEL-5 melanoma, 3.13 µM; in the experiment on SK-OV-3 ovarian it was over 100 µM; with SR leukemia, over 100 µM.

Turning to `COc1ccc(-c2nn(-c3cccc(Cl)c3)cc2-c2nc(N)[nH]c(=O)c2C#N)cc1`, the GI50 in the experiment with CAKI-1 renal was 2.52 µM; with HS 578T breast it was 3.55 µM; in the experiment with IGROV1 ovarian it was 3.01 µM; with NCI-H226 lung, 6.23 µM; in the experiment with NCI-H23 lung, 5.44 µM; in the experiment with NCI/ADR-RES ovarian, 3.33 µM. In addition, the GI50 with OVCAR-8 ovarian is 10.1 µM; in the experiment with SK-MEL-5 melanoma, 4.07 µM; in the experiment on SK-OV-3 ovarian it was 6.56 µM; in the experiment with SR leukemia, 3.73 µM. In addition, the TGI was found to be 15.3 µM with CAKI-1 renal; 40.3 µM in the experiment with HS 578T breast; 18.1 µM in the experiment on IGROV1 ovarian; 70.3 µM in the experiment on NCI-H226 lung; 46.2 µM in the experiment with NCI-H23 lung; 15.9 µM with NCI/ADR-RES ovarian. For the same compound, the TGI in the experiment with OVCAR-8 ovarian stood at 60.3 µM; with SK-MEL-5 melanoma, 15.9 µM; in the experiment with SK-OV-3 ovarian it was 30.7 µM; with SR leukemia, 21.2 µM.

On to `NC(=O)CNc1ccc([As]=[As]c2ccc(NCC(N)=O)cc2)cc1` (centres undefined), for which the GI50 was 2.41 µM in the experiment with CAKI-1 renal; 1.45 µM in the experiment with HS 578T breast; 3.37 µM with IGROV1 ovarian; 5.62 µM in the experiment on NCI-H226 lung; 8.1 µM in the experiment with NCI-H23 lung; 9.13 µM in the experiment with NCI/ADR-RES ovarian. In addition, the GI50 is 4.65 µM in the experiment with OVCAR-8 ovarian, 1.95 µM in the experiment with SK-MEL-5 melanoma, 22.6 µM in the experiment with SK-OV-3 ovarian and 2.25 µM with SR leukemia. Further, the TGI in the experiment on CAKI-1 renal is 17.9 µM; in the experiment on HS 578T breast it was 21.1 µM; with IGROV1 ovarian, 23.8 µM; with NCI-H226 lung, 22.8 µM; in the experiment with NCI-H23 lung it was 31.1 µM; in the experiment on NCI/ADR-RES ovarian it was over 100 µM. For the same compound, the TGI with OVCAR-8 ovarian was over 100 µM; in the experiment with SK-MEL-5 melanoma it was 5.17 µM; with SK-OV-3 ovarian it was 71.4 µM; with SR leukemia it was over 100 µM.

On to `COc1ccc(-c2noc(N)c2-c2cc(OC)c3c(c2)OCO3)cc1`, for which the GI50 in the experiment on CAKI-1 renal was 3.21 µM; with HS 578T breast, 2.61 µM; in the experiment on IGROV1 ovarian, 6.8 µM; in the experiment on NCI-H226 lung, 18 µM; with NCI-H23 lung, 3.17 µM; in the experiment on NCI/ADR-RES ovarian, 0.721 µM. The GI50 was 3.98 µM in the experiment on OVCAR-8 ovarian, 3.14 µM in the experiment on SK-MEL-5 melanoma, 4.54 µM in the experiment on SK-OV-3 ovarian and 0.523 µM with SR leukemia. The TGI is over 100 µM in the experiment on CAKI-1 renal; 24.4 µM with HS 578T breast; over 100 µM in the experiment with IGROV1 ovarian; over 100 µM in the experiment with NCI-H226 lung; over 83.1 µM in the experiment on NCI-H23 lung; over 100 µM in the experiment on OVCAR-8 ovarian. Further, the TGI in the experiment on SK-MEL-5 melanoma is 21.2 µM; with SK-OV-3 ovarian it was over 38.3 µM; in the experiment on SR leukemia it was over 51.2 µM.

On to `Oc1ccc(/C=C/c2cc(O)cc3c2C(c2cc(O)cc(O)c2)C(c2ccc(O)c(O)c2)O3)cc1` (centres undefined), for which the TGI in the experiment with CAKI-1 renal is 98.1 µM; with HS 578T breast, 88.8 µM; with IGROV1 ovarian, over 100 µM; in the experiment with NCI-H226 lung, over 100 µM; in the experiment on NCI-H23 lung it was 63.9 µM; in the experiment with NCI/ADR-RES ovarian it was over 100 µM. For the same compound, the TGI in the experiment on OVCAR-8 ovarian is 68.2 µM; with SK-MEL-5 melanoma, 34.7 µM; with SK-OV-3 ovarian, over 100 µM; in the experiment on SR leukemia, 55.4 µM.
